From the Deep4Chem optical property database
Each block holds one molecule with its values, some of them ahead of it.

Assay: photoluminescence quantum yield (fraction); solvent given as SMILES
[1] = in c1ccc2c(c1)c1ccccc1n2-c1ccc(-c2ccc(-n3c4ccccc4c4ccccc43)cc2)cc1

photoluminescence quantum yield (in ClCCl): 0.42
Compound: COc1ccc(-c2ccc(/C=C/c3cnc4ccccc4n3)cc2)cc1

photoluminescence quantum yield (in ClCCl): 0.21
Compound: CCCCn1c(-c2ccc(-c3nnc(-c4ccccc4)o3)cc2)nc(-c2ccccc2)c1-c1ccccc1

photoluminescence quantum yield (in CO): 0.25
Compound: Oc1ccccc1-c1nc(-c2ccccc2)c(-c2ccccc2)[nH]1

photoluminescence quantum yield (in ClC(Cl)Cl): 0.42
Compound: CCCCCCN1C(=O)C(c2ccc(-n3c4ccccc4c4ccccc43)cc2)=C(c2ccc(-n3c4ccccc4c4ccccc43)cc2)C1=O
photoluminescence quantum yield [1]: 0.66

photoluminescence quantum yield (in ClCCl): 0.11
Compound: c1ccc(-c2nc(-c3ccc(N4c5ccccc5Oc5ccccc54)cc3)nn2-c2ccc(N3c4ccccc4Oc4ccccc43)cc2)nc1

photoluminescence quantum yield (in ClCCl): 0.61
Compound: Cc1ccc(N(c2ccc(C)cc2)c2ccc3c4cccc5c(N(c6ccc(C)cc6)c6ccc(C)cc6)ccc(c6cccc2c63)c54)cc1

photoluminescence quantum yield (in ClC(Cl)Cl): 0.004
Compound: COc1ccc(O[B-]2(Oc3ccc(OC)cc3)n3c(C)cc(C)c3C(c3ccc(I)cc3)=C3C(C)=CC(C)=[N+]32)cc1

photoluminescence quantum yield (in CCCCCC): 0.685
Compound: COC(=O)c1c(C(=O)OC)c2ccc(-c3ccccc3)nn2c1C

photoluminescence quantum yield (in C1CCOC1): 0.14
Compound: F[Si](c1ccccc1)(c1ccccc1)c1cccc2ccccc12

photoluminescence quantum yield (in ClCCl): 0.48
Compound: CCCCc1ccc(C#Cc2ccc3nc4ccc(C#Cc5ccc(CCCC)cc5)cn4c(=O)c3c2)cc1

photoluminescence quantum yield (in ClCCl): 0.6
Compound: CCCCn1c2c(-c3ccc(N(c4ccccc4)c4ccccc4)cc3)cc(C#N)cc2c2cc(C#N)cc(-c3ccc(N(c4ccccc4)c4ccccc4)cc3)c21

photoluminescence quantum yield (in C1CCOC1): 0.86
photoluminescence quantum yield (in ClC(Cl)Cl): 0.52
Compound: F[Si](c1ccccc1)(c1ccccc1)c1c2ccccc2cc2ccccc12

photoluminescence quantum yield (in CCO): 0.1
photoluminescence quantum yield (in CO): 0.08
photoluminescence quantum yield (in CS(C)=O): 0.18
Compound: CN1/C(=C/C=C(/C=C/c2sc3ccccc3[n+]2C)c2cc(F)cc(F)c2)Sc2ccccc21

photoluminescence quantum yield (in C1CCOC1): 0.009
photoluminescence quantum yield (in ClC(Cl)Cl): 0.053
photoluminescence quantum yield (in ClCCl): 0.019
Compound: COc1cc2cc(OC)c(C#Cc3ccc([N+](=O)[O-])cc3)cc2cc1C#Cc1ccc([N+](=O)[O-])cc1

photoluminescence quantum yield (in ClCCl): 0.157
Compound: CCCCCCCCCCCCN1C(=O)c2c(c3ccc4cc(-c5ccc(C=O)cc5)c(OC)cc4c3c3c2ccc2cc(-c4ccc(C=O)cc4)c(OC)cc23)C1=O

photoluminescence quantum yield (in CC#N): 0.3
photoluminescence quantum yield (in CCOC(C)=O): 0.48
photoluminescence quantum yield (in CN(C)C=O): 0.2
photoluminescence quantum yield (in CS(C)=O): 0.23
photoluminescence quantum yield (in c1ccccc1): 0.5
Compound: CCOC(=O)CN(CC(=O)OCC)c1ccc(-c2cc(-c3ccncc3)nc(-c3ccncc3)c2)cc1

photoluminescence quantum yield (in ClC(Cl)Cl): 0.32
Compound: CC1=[N+]2C(=C(c3c4ccccc4cc4ccccc34)c3ccc(/C=C/C(C)(C)C)n3[B-]2(F)F)C=C1

photoluminescence quantum yield (in CN(C)C=O): 0.98
Compound: O=C1NC(=O)c2ccc3c4ccc5c6c(ccc(c7ccc1c2c73)c64)C(=O)N(c1ccc(Cl)cc1)C5=O

photoluminescence quantum yield (in ClCCl): 0.46
Compound: COc1ccc(N(c2ccccc2)c2ccc3ccc4c(N(c5ccccc5)c5ccc(OC)cc5)ccc5ccc2c3c54)cc1

photoluminescence quantum yield (in CO): 0.84
Compound: C#CCOc1ccc(/C=C/C2=[N+]3C(=C(c4ccc(N(CC)CC)cc4)c4c(C)cc(C)n4[B-]3(F)F)C(C)=C2)cc1

photoluminescence quantum yield (in CCO): 0.1
photoluminescence quantum yield (in ClCCl): 0.0937
photoluminescence quantum yield (in O): 0.01
Compound: Oc1cc(-c2cccs2)ccc1-c1nc2ccccc2s1

photoluminescence quantum yield (in CCO): 0.132
Compound: Cc1ccc(CN2/C(=C/C=C3\CCCC(/C=C/C4=[N+](Cc5ccc(C)cc5)c5ccccc5C4(C)C)=C3Cl)C(C)(C)c3ccccc32)cc1

photoluminescence quantum yield (in CS(C)=O): 0.07
Compound: CCN1/C(=C/C=C/C2=[N+](C)c3ccccc3C2(C)C)C(C)(C)c2ccccc21

photoluminescence quantum yield (in ClC(Cl)Cl): 0.391
Compound: CC(C)(C)c1ccc2oc3nc4oc5ccc(-n6c7ccccc7c(=O)c7ccccc76)cc5c4cc3c2c1

More lines, now with the values behind:

Compound: O=P1(c2ccccc2)c2ccc(N3c4ccccc4Sc4ccccc43)cc2-c2cc(N3c4ccccc4Sc4ccccc43)ccc21
photoluminescence quantum yield (in Cc1ccccc1): 0.59
photoluminescence quantum yield [1]: 0.53

Compound: C[Si]1(C)C2=CC(=[N+]3CCC3)C=C(F)C2=Nc2c(F)cc(N3CCC3)cc21
photoluminescence quantum yield (in CCO): 0.11

Compound: c1csc(-c2ccc(-c3cccs3)c3nsnc23)c1
photoluminescence quantum yield (in ClC(Cl)Cl): 0.59

Compound: Cc1ccc(/C=C/C(F)(F)F)c(N)c1
photoluminescence quantum yield (in C1CCOC1): 0.62

Compound: C(=C\c1nc2c(c(N3CCOCC3)n1)CCCC2)/c1ccccc1
photoluminescence quantum yield (in ClCCl): 0.023

Compound: COc1ccc(C2=CC(c3ccccc3)=[N+]3C2=Nc2c(-c4ccc(OC)cc4)cc(-c4ccccc4)n2[B-]3(F)F)cc1
photoluminescence quantum yield (in Cc1ccccc1): 0.24
photoluminescence quantum yield (in ClC(Cl)Cl): 0.23

Compound: COc1ccc(C2=C(Br)C(c3ccccc3)=[N+]3C2=Nc2c(-c4ccc(OC)cc4)c(Br)c(-c4ccccc4)n2[B-]3(F)F)cc1
photoluminescence quantum yield (in Cc1ccccc1): 0.01

Compound: CC1(C)c2cccc(-c3nc(-c4ccccc4)nc(-c4ccccc4)n3)c2Oc2c(N3c4ccccc4Sc4ccccc43)cccc21
photoluminescence quantum yield (in Cc1ccccc1): 0.077

Compound: COc1cc(/C=C2/SC(=O)NC2=O)ccc1O
photoluminescence quantum yield (in C1CCCCC1): 0.018
photoluminescence quantum yield (in C1COCCO1): 0.017
photoluminescence quantum yield (in CC#N): 0.01
photoluminescence quantum yield (in CN(C)C=O): 0.023
photoluminescence quantum yield (in CO): 0.012
photoluminescence quantum yield (in O): 0.011
photoluminescence quantum yield (in OCC(O)CO): 0.35
photoluminescence quantum yield (in OCCO): 0.104

Compound: CCCCCCC(CCCCCC)N1C(=O)c2cccc3c(-c4cc(OC)c(OC)c(OC)c4)ccc(c23)C1=O
photoluminescence quantum yield (in CCCCCC): 0.41
photoluminescence quantum yield (in CCCCCCCCCCCCCC): 0.51
photoluminescence quantum yield (in CCCCCCCCCCCO): 0.26
photoluminescence quantum yield (in CCCCO): 0.022
photoluminescence quantum yield (in CN(C)C=O): 0.0065
photoluminescence quantum yield (in Cc1ccccc1): 0.71
photoluminescence quantum yield (in ClC(Cl)Cl): 0.65

Compound: CCN(CC)c1ccc2cc(/C=C/C(O)=C/C(C)=O)c(=O)oc2c1
photoluminescence quantum yield (in CC#N): 0.36
photoluminescence quantum yield (in CC(C)=O): 0.46
photoluminescence quantum yield (in CCOC(C)=O): 0.5
photoluminescence quantum yield (in CO): 0.35
photoluminescence quantum yield (in CS(C)=O): 0.39
photoluminescence quantum yield (in Cc1ccccc1): 0.66
photoluminescence quantum yield (in ClC(Cl)Cl): 0.53
photoluminescence quantum yield (in ClCCl): 0.52

Compound: CC1=CC(C)=[N+]2C1=Cc1c3ccccc3c(C#Cc3ccsc3)n1[B-]2(F)F
photoluminescence quantum yield (in CCCCCC): 1
photoluminescence quantum yield (in CCCCCCCCO): 0.72
photoluminescence quantum yield (in CCOC(C)=O): 0.81
photoluminescence quantum yield (in CN(C)C=O): 0.67
photoluminescence quantum yield (in ClCCl): 0.8

Compound: N#Cc1ccc(-c2cn3cc(C#N)c[n+]3[n-]2)cc1
photoluminescence quantum yield (in ClCCl): 0.45

Compound: CC(C)(C)c1ccc2c(c1)[nH]c1c3[nH]c4cc(C(C)(C)C)ccc4c3c3nsnc3c21
photoluminescence quantum yield (in CN(C)C=O): 0.09
photoluminescence quantum yield (in Cc1ccccc1): 0.11
photoluminescence quantum yield (in ClCCl): 0.12

Compound: CCN(CC)c1ccc(/C=N/C2CCCCC2/N=C/c2ccc(N(CC)CC)cc2O)c(O)c1 (centres undefined)
photoluminescence quantum yield (in CC#N): 0.068

Compound: N#Cc1cc(N2c3ccccc3Oc3ccccc32)c(N2c3ccccc3Oc3ccccc32)cc1C#N
photoluminescence quantum yield [1]: 0.064

Compound: Cc1nc2c(c[n+]1C)CN1C(=O)N([C@H]3O[C@@H](CO)[C@H](O)[C@@H]3O)C=CC1=N2
photoluminescence quantum yield (in CC#N): 0.99
photoluminescence quantum yield (in CC(C)=O): 0.94
photoluminescence quantum yield (in CCCCO): 0.12
photoluminescence quantum yield (in CCCO): 0.11
photoluminescence quantum yield (in CCO): 0.14
photoluminescence quantum yield (in CO): 0.14
photoluminescence quantum yield (in O): 0.38
photoluminescence quantum yield (in [2H]OC): 0.15
photoluminescence quantum yield (in [2H]OCC): 0.14
photoluminescence quantum yield (in [2H]O[2H]): 0.42

Compound: CCOc1cc2c(cc1/C=C/C1=CC(=C(C#N)C#N)CC(C)(C)C1)c1ccccc1n2CC
photoluminescence quantum yield (in C1CCOC1): 0.021
photoluminescence quantum yield (in CC#N): 0.018
photoluminescence quantum yield (in CCO): 0.025
photoluminescence quantum yield (in CCOC(C)=O): 0.026
photoluminescence quantum yield (in CN(C)C=O): 0.035
photoluminescence quantum yield (in CS(C)=O): 0.05
photoluminescence quantum yield (in Cc1ccccc1): 0.008
photoluminescence quantum yield (in ClC(Cl)Cl): 0.017
photoluminescence quantum yield (in ClCCl): 0.028

Compound: O=C([O-])c1c(Cl)c(Cl)c(Cl)c(Cl)c1-c1c2cc(I)c(=O)c(I)c-2oc2c(I)c([O-])c(I)cc12
photoluminescence quantum yield (in CC(C)O): 0.14
photoluminescence quantum yield (in CCO): 0.11
photoluminescence quantum yield (in CO): 0.08
photoluminescence quantum yield (in O): 0.018

Compound: CCCCOC(=O)c1cc(Cl)c2c3c(Cl)cc4c5c(cc(Cl)c(c6c(Oc7ccc(C(=O)OC)cc7)cc(C(=O)OCCCC)c1c26)c53)C(=O)N(c1c(C(C)C)cccc1C(C)C)C4=O
photoluminescence quantum yield (in Cc1ccccc1): 0.92

Compound: C=Cc1ccc(OC)c(OC)c1
photoluminescence quantum yield (in C1CCCCC1): 0.32
photoluminescence quantum yield (in CC#N): 0.29

Compound: CCOC(=O)C1=CN(Cc2ccccc2)C=C(C(=O)OCC)C1
photoluminescence quantum yield (in C1CCOC1): 0.31
photoluminescence quantum yield (in CO): 0.24

Compound: F[B-]1(F)OC(c2ccccc2)=CC(c2ccccc2)=[O+]1
photoluminescence quantum yield (in CC#N): 0.8
photoluminescence quantum yield (in ClC(Cl)(Cl)Cl): 0.15

Compound: COc1cccc(C2=CC3=C(c4c(C)cc(C)cc4C)c4cc(-c5cccc(OC)c5)c(-c5cccc(OC)c5)n4[B-](F)(F)[N+]3=C2c2cccc(OC)c2)c1
photoluminescence quantum yield (in C1CCCCC1): 0.86
photoluminescence quantum yield (in C1CCOC1): 0.76
photoluminescence quantum yield (in CC#N): 0.65
photoluminescence quantum yield (in Cc1ccccc1): 0.78
photoluminescence quantum yield (in ClCCl): 0.83

Compound: Cc1ccc(NC(=O)c2ccc(N(C)C)cc2)cc1
photoluminescence quantum yield (in C1CCCCC1): 0.0015
photoluminescence quantum yield (in C1CCOC1): 0.0028
photoluminescence quantum yield (in CC#N): 0.0027
photoluminescence quantum yield (in CCOCC): 0.0034

Compound: N#Cc1ccccc1N1c2ccccc2C(c2ccccc2)(c2ccccc2)c2ccccc21
photoluminescence quantum yield (in Cc1ccccc1): 0.33

Compound: CN(C)c1ccc2nc(/C=C/c3ccccc3)c(=O)oc2c1
photoluminescence quantum yield (in C1CCCCC1): 0.77
photoluminescence quantum yield (in C1COCCO1): 0.79
photoluminescence quantum yield (in CC#N): 0.54
photoluminescence quantum yield (in CC(C)=O): 0.71
photoluminescence quantum yield (in CCCCCCC): 0.74
photoluminescence quantum yield (in CCO): 0.55
photoluminescence quantum yield (in CCOC(C)=O): 0.75
photoluminescence quantum yield (in CN(C)C=O): 0.66
photoluminescence quantum yield (in CS(C)=O): 0.61
photoluminescence quantum yield (in Cc1ccccc1): 0.77
photoluminescence quantum yield (in ClC(Cl)Cl): 0.81
photoluminescence quantum yield (in ClCCl): 0.81

Compound: CCN(CC)c1ccc2c(C)cc(=O)oc2c1
photoluminescence quantum yield (in CCCCCCCCO): 0.68
photoluminescence quantum yield (in CCCCCCO): 0.66
photoluminescence quantum yield (in CCCCO): 0.61
photoluminescence quantum yield (in CCCO): 0.62
photoluminescence quantum yield (in CCO): 0.41
photoluminescence quantum yield (in CO): 0.26
photoluminescence quantum yield (in O): 0.041
